Measurements: US9695180B2 (Incyte Corporation, priority 2014, dated 2017)

Biological target: LSD-1 enzyme (Homo sapiens (Human), UniProt O60341)
Test: LANCE LSD1/KDM1A demethylase assay (LSD1 histone demethylase biochemical assay)
Experimental: Example A: LSD1 Histone Demethylase Biochemical Assay
LANCE LSD1/KDM1A demethylase assay—10 μL of 1 nM LSD-1 enzyme (ENZO BML-SE544-0050) in the assay buffer (50 mM Tris, pH 7.5, 0.01% Tween-20, 25 mM NaCl, 5 mM DTT) were preincubated for 1 hour at 25° C. with 0.8 μL compound/DMSO dotted in black 384 well polystyrene plates. […] Reactions were stopped by addition of 10 μL 1× LANCE Detection Buffer (PerkinElmer CR97-100) supplemented with 1.5 nM Eu-anti-unmodified H3K4 Antibody (PerkinElmer TRF0404), and 225 nM LANCE Ultra Streptavidin (PerkinElmer TRF102) along with 0.9 mM Tranylcypromine-HCl (Millipore 616431). After stopping the reactions plates were incubated for 30 minutes and read on a PHERAstar FS plate reader (BMG Labtech).

CN1CCC[C@@H](COc2nc(-c3ccc(C#N)cc3)c(-c3ccc(CO)cc3)n3ccnc23)C1 [Example 74, 4-(5-[4-(hydroxymethyl)phenyl]-8-{[(3R)-1-methylpiperidin-3-yl]methoxy}imidazo[1,2-a]pyrazin-6-yl)benzonitrile] was tested. Which IC50 did it give?
Its IC50 is 50 to 500 nM.

With CN1CCC[C@@H](COc2nc(-c3ccc(C#N)cc3)c(-c3ccc(CN4CCOCC4)cc3)n3ccnc23)C1 [Example 75, 4-{8-{[(3R)-1-methylpiperidin-3-yl]methoxy}-5-[4-(morpholin-4-ylmethyl)phenyl]imidazo[1,2-a]pyrazin-6-yl}benzonitrile] as the molecule, how does the IC50 read?
Its IC50 is 50 to 500 nM.

With COC(=O)N(C)c1ccc(-c2c(-c3ccc(C#N)cc3)nc(OC[C@@H]3CCCN(C)C3)c3nccn23)cc1 [Example 77] as the molecule, how does the IC50 read?
The IC50 was 50 to 500 nM.

For CN1CCC[C@@H](COc2nc(-c3ccc(C#N)cc3)c(-c3ccc(CN4CCOCC4)c(F)c3)n3ccnc23)C1 [Example 82, 4-(5-[3-fluoro-4-(morpholin-4-ylmethyl)phenyl]-8-{[(3R)-1-methylpiperidin-3-yl]methoxy}imidazo[1,2-a]pyrazin-6-yl)benzonitrile], which IC50 is on record?
The IC50 was 50 to 500 nM.

How did the IC50 turn out when CN1CCC[C@@H](COc2nc(-c3ccc(C#N)cc3)c(-c3cc(F)c(CO)c(F)c3)n3ccnc23)C1 [Example 83, 4-(5-[3,5-difluoro-4-(hydroxymethyl)phenyl]-8-{[(3R)-1-methylpiperidin-3-yl]methoxy}imidazo[1,2-a]pyrazin-6-yl)benzonitrile] was run?
The IC50 was 50 to 500 nM.

COc1ncc(-c2c(-c3ccc(C#N)cc3)nc(OC[C@@H]3CCCN(C)C3)c3nccn23)cc1F [Example 84, 4-(5-(5-fluoro-6-methoxypyridin-3-yl)-8-{[(3R)-1-methylpiperidin-3-yl]methoxy}imidazo[1,2-a]pyrazin-6-yl)benzonitrile] was tested. Which IC50 did it give?
The IC50 was 50 to 500 nM.

For Cc1cc(-c2c(-c3ccc(C#N)cc3)nc(OC[C@@H]3CCCN(C)C3)c3nccn23)ccc1C(C)O (stereo partly drawn) [Example 86, 4-(5-[4-(1-hydroxyethyl)-3-methylphenyl]-8-{[(3R)-1-methylpiperidin-3-yl]methoxy}imidazo[1,2-a]pyrazin-6-yl)benzonitrile], which IC50 is on record?
Its IC50 is 50 to 500 nM.

For CN1CCC[C@@H](COc2nc(-c3ccc(C#N)cc3)c(-c3ccc(CN4CCOCC4)cc3F)n3ccnc23)C1 [Example 89, 4-(5-[2-fluoro-4-(morpholin-4-ylmethyl)phenyl]-8-{[(3R)-1-methylpiperidin-3-yl]methoxy}imidazo[1,2-a]pyrazin-6-yl)benzonitrile], which IC50 is on record?
Its IC50 is 50 to 500 nM.

With CN(C)[C@H]1CCN(c2nc(-c3ccc(C#N)cc3)c(-c3ccc(N4CCCC4=O)nc3)n3ccnc23)C1 [Example 104, 4-{8-[(3S)-3-(dimethylamino)pyrrolidin-1-yl]-5-[6-(2-oxopyrrolidin-1-yl)pyridin-3-yl]imidazo[1,2-a]pyrazin-6-yl}benzonitrile] as the molecule, how does the IC50 read?
The IC50 was 50 to 500 nM.

For CN1C(=O)CCc2ccc(-c3c(-c4ccc(C#N)cc4)nc(N4CCC(N(C)C)CC4)c4nccn34)cc21 [Example 108, 4-[8-[4-(dimethylamino)piperidin-1-yl]-5-(1-methyl-2-oxo-1,2,3,4-tetrahydroquinolin-7-yl)imidazo[1,2-a]pyrazin-6-yl]benzonitrile], which IC50 is on record?
The IC50 was 50 to 500 nM.

With C[C@H](O)c1nc2cc(-c3c(-c4ccc(C#N)cc4)nc(N4CCC(N(C)C)CC4)c4nccn34)ccc2n1C [Example 114, 4-(8-[4-(dimethylamino)piperidin-1-yl]-5-{2-[(1S)-1-hydroxyethyl]-1-methyl-1H-benzimidazol-5-yl}imidazo[1,2-a]pyrazin-6-yl)benzonitrile] as the molecule, how does the IC50 read?
Its IC50 is 50 to 500 nM.

With COc1cc(-c2c(-c3ccc(C#N)cc3)nc(N3CCC(N(C)C)CC3)c3nccn23)cnc1C [Example 116, 4-[8-[4-(dimethylamino)piperidin-1-yl]-5-(5-methoxy-6-methylpyridin-3-yl)imidazo[1,2-a]pyrazin-6-yl]benzonitrile] as the molecule, how does the IC50 read?
The IC50 was 50 to 500 nM.

Cc1ncc(-c2c(-c3ccc(C#N)cc3)nc(OC[C@@H]3CCCN(C)C3)c3nccn23)cc1C#N [Example 117, 5-(6-(4-cyanophenyl)-8-{[(3R)-1-methylpiperidin-3-yl]methoxy}imidazo[1,2-a]pyrazin-5-yl)-2-methylnicotinonitrile] was tested. Which IC50 did it give?
Its IC50 is 50 to 500 nM.
